From patent US12441722B2, “Therapeutic agents and methods of treatment” (University of Florida Research Foundation, Incorporated, priority 2020, dated 2025) come the findings set out here.

Molecules are shown by their SMILES. Bounds are passed on as bounds.

In the first assay the test system is MOLT-4. As to the kind of experiment: Cell viability assay (tetrazolium-based MTS) in MOLT4 cells. To be noted: Homo sapiens, MOLT-4, MOLT4 acute lymphoblastic leukemia cells, 48 h incubation. How it is done:
Cancer cells from acute lymphoblastic leukemia (MOLT4) were incubated with increasing concentrations of compounds of Examples 1-9 for 48 h. Cell viability was measured by tetrazolium-based MTS assay. 5×10^4 to 1×10^5 suspension cells or 3×10^3 to 5×10^3 adherent cells were seeded and treated in 96-well plates for 48 h. The EC50 values of individual agents were calculated with GraphPad Prism.
Usually EC50 stands for the midpoint of the concentration-response curve. Lower therefore signals an effect from little substance. On to `Cc1c(-c2ccc(N3CCc4cccc(C(=O)Nc5nc6ccccc6s5)c4C3)nc2C(=O)NCCOCCOCCOCCNc2cccc3c2C(=O)N(C2CCC(=O)NC2=O)C3=O)cnn1CC12CC3CC(CC(C3)C1)C2` (centres unmarked) [degrader #8, 2-(5-(1-(adamantan-1-ylmethyl)-5-methyl-1H-pyrazol-4-yl)-6-((2-(2-(2-(2-((2-(2,6-dioxopiperidin-3-yl)-1,3-dioxoisoindolin-4-yl)amino)ethoxy)ethoxy)ethoxy)ethyl)carbamoyl)pyridin-2-yl)-N-(benzo[d]thiazol-2-yl)-1,2,3,4-tetrahydroisoquinoline-8-carboxamide], for which the EC50 was < 10 nM.
`Cc1c(-c2ccc(N3CCc4cccc(C(=O)Nc5nc6ccccc6s5)c4C3)nc2C(=O)NS(=O)(=O)CCCn2cc(COCCOCCNc3cccc4c3C(=O)N(C3CCC(=O)NC3=O)C4=O)nn2)cc(C#N)n1CC12CC3CC(CC(C3)C1)C2` (centres unmarked) [degrader #2, 2-(5-(1-(adamantan-1-ylmethyl)-5-cyano-2-methyl-1H-pyrrol-3-yl)-6-(((3-(4-((2-(2-((2-(2,6-dioxopiperidin-3-yl)-1,3-dioxoisoindolin-4-yl)amino)ethoxy)ethoxy)methyl)-1H-1,2,3-triazol-1-yl)propyl)sulfonyl)carbamoyl)pyridin-2-yl)-N-(benzo[d]thiazol-2-yl)-1,2,3,4-tetrahydroisoquinoline-8-carboxamide] had an EC50 of 10 to 100 nM.
For `Cc1c(-c2ccc(N3CCc4cccc(C(=O)Nc5nc6ccccc6s5)c4C3)nc2C(=O)O)cnn1CC12CC3CC(CC(C3)C1)C2` [A1331852, reference compound], the EC50 is < 10 nM.
As to `Cc1ncsc1-c1ccc([C@H](C)NC(=O)[C@@H]2C[C@@H](O)CN2C(=O)[C@@H](NC(=O)CCCCCCCS(=O)(=O)NC(=O)c2nc(N3CCc4cccc(C(=O)Nc5nc6ccccc6s5)c4C3)ccc2-c2cc(C#N)n(CC34CC5CC(CC(C5)C3)C4)c2C)C(C)(C)C)cc1` [degrader #18, 2-(5-(1-(adamantan-1-ylmethyl)-5-cyano-2-methyl-1H-pyrrol-3-yl)-6-(((8-(((S)-1-((2S,4R)-4-hydroxy-2-(((S)-1-(4-(4-methylthiazol-5-yl)phenyl)ethyl)carbamoyl)pyrrolidin-1-yl)-3,3-dimethyl-1-oxobutan-2-yl)amino)-8-oxooctyl)sulfonyl)carbamoyl)pyridin-2-yl)-N-(benzo[d]thiazol-2-yl)-1,2,3,4-tetrahydroisoquinoline-8-carboxamide], the EC50 was in the range of 10 to 100 nM.
On the same count and under the same terms, to `Cc1ncsc1-c1ccc([C@H](C)NC(=O)[C@@H]2C[C@@H](O)CN2C(=O)[C@@H](NC(=O)CCCCCCCCS(=O)(=O)NC(=O)c2nc(N3CCc4cccc(C(=O)Nc5nc6ccccc6s5)c4C3)ccc2-c2cnn(CC34CC5CC(CC(C5)C3)C4)c2C)C(C)(C)C)cc1` [degrader #14, 2-(5-(1-(adamantan-1-ylmethyl)-5-methyl-1H-pyrazol-4-yl)-6-(((9-(((S)-1-((2S,4R)-4-hydroxy-2-(((S)-1-(4-(4-methylthiazol-5-yl)phenyl)ethyl)carbamoyl)pyrrolidin-1-yl)-3,3-dimethyl-1-oxobutan-2-yl)amino)-9-oxononyl)sulfonyl)carbamoyl)pyridin-2-yl)-N-(benzo[d]thiazol-2-yl)-1,2,3,4-tetrahydroisoquinoline-8-carboxamide] belongs < 10 nM.

The same assay, now with this note: MOLT4 acute lymphoblastic leukemia cells, 48 h incubation.
As to `Cc1ncsc1-c1ccc([C@H](CC(=O)NCCCCCCNC(=O)c2nc(N3CCc4cccc(C(=O)Nc5nc6ccccc6s5)c4C3)ccc2-c2cnn(CC34CC5CC(CC(C5)C3)C4)c2C)NC(=O)[C@@H]2C[C@@H](O)CN2C(=O)[C@@H](NC(=O)C2(C#N)CC2)C(C)(C)C)cc1` [degrader #24, 2-(5-(1-(adamantan-1-ylmethyl)-5-methyl-1H-pyrazol-4-yl)-6-((6-((S)-3-((2S,4R)-1-((S)-2-(1-cyanocyclopropane-1-carboxamido)-3,3-dimethylbutanoyl)-4-hydroxypyrrolidine-2-carboxamido)-3-(4-(4-methylthiazol-5-yl)phenyl)propanamido)hexyl)carbamoyl)pyridin-2-yl)-N-(benzo[d]thiazol-2l)-1,2,3,4-tetrahydroisoquinoline-8-carboxamide], the EC50 lay within 100 to 1000 nM.
On the same count and under the same terms, to `Cc1c(-c2ccc(N3CCc4cccc(C(=O)Nc5nc6ccccc6s5)c4C3)nc2C(=O)O)cnn1CC12CC3CC(C1)CC(C(=O)NCCCCCCCCCCNc1cccc4c1C(=O)N(C1CCC(=O)NC1=O)C4=O)(C3)C2` (centres unmarked) [degrader #37, 6-(8-(benzo[d]thiazol-2-ylcarbamoyl)-3,4-dihydroisoquinolin-2(1H)-yl)-3-(1-(((1r,3r)-3-((10-((2-(2,6-dioxopiperidin-3-yl)-1,3-dioxoisoindolin-4-yl)amino)decyl)carbamoyl)adamantan-1-yl)methyl)-5-methyl-1H-pyrazol-4-yl)picolinic acid] belongs 10 to 100 nM; to `Cc1ncsc1-c1ccc([C@H](C)NC(=O)[C@@H]2C[C@@H](O)CN2C(=O)[C@@H](NC(=O)CCNC(=O)C23CC4CC(CC(Cn5ncc(-c6ccc(N7CCc8cccc(C(=O)Nc9nc%10ccccc%10s9)c8C7)nc6C(=O)O)c5C)(C4)C2)C3)C(C)(C)C)cc1` [degrader #41, 6-(8-(benzo[d]thiazol-2-ylcarbamoyl)-3,4-dihydroisoquinolin-2(1H)-yl)-3-(1-(((1S,3r)-3-((3-(((S)-1-((2S,4R)-4-hydroxy-2-(((S)-1-(4-(4-methylthiazol-5-yl)phenyl)ethyl)carbamoyl)pyrrolidin-1-yl)-3,3-dimethyl-1-oxobutan-2-yl)amino)-3-oxopropyl)carbamoyl)adamantan-1-yl)methyl)-5-methyl-1H-pyrazol-4-yl)picolinic acid], > 1000 nM.
The same measure, in the same setting: to `Cc1c(-c2ccc(N3CCc4cccc(C(=O)Nc5nc6ccccc6s5)c4C3)nc2C(=O)NCCOCCOCCOCC#Cc2ccc3c(c2)C(=O)N(C2CCC(=O)NC2=O)C3=O)cnn1CC12CC3CC(CC(C3)C1)C2` (centres unmarked) [degrader #27, 2-(5-(1-(adamantan-1-ylmethyl)-5-methyl-1H-pyrazol-4-yl)-6-((2-(2-(2-((3-(2-(2,6-dioxopiperidin-3-yl)-1,3-dioxoisoindolin-5-yl)prop-2-yn-1-yl)oxy)ethoxy)ethoxy)ethyl)carbamoyl)pyridin-2-yl)-N-(benzo[d]thiazol-2-yl)-1,2,3,4-tetrahydroisocuinoline-8-carboxamnide] belongs 10 to 100 nM; to `Cc1c(-c2ccc(N3CCc4cccc(C(=O)Nc5nc6ccccc6s5)c4C3)nc2C(=O)O)cnn1CC12CC3CC(C1)CC(C(=O)NCCCCCCCCNc1cccc4c1C(=O)N(C1CCC(=O)NC1=O)C4=O)(C3)C2` (centres unmarked) [degrader #36, 6-(8-(benzo[d]thiazol-2-ylcarbamoyl)-3,4-dihydroisoquinolin-2(1H)-yl)-3-(1-(((1r,3r)-3-((8-((2-(2,6-dioxopiperidin-3-yl)-1,3-dioxoisoindolin-4-yl)amino)octyl)carbamoyl)adamantan-1-yl)methyl)-5-methyl-1H-pyrazol-4-yl)picolinic acid], < 10 nM.

In a further assay the test system is MOLT4 cells. As to the kind of experiment: Protein degradation assay in MOLT4 cells (western blot). It counts as cell-based. As to conditions: MOLT4 cells incubated with various concentrations; the FIGURE. The procedure: MOLT4 cells and human platelets can be incubated with increasing concentrations of test compounds for 16 h. The cells can be harvested and lysed in RIPA lysis buffer supplemented with protease and phosphatase inhibitor cocktails. An equal amount of protein (20 μg/lane) can be resolved on a pre-cast 4-20% SDS-PAGE gel. Proteins can be subsequently transferred to NOVEX PVDF membranes by electrophoresis. The membranes can be blocked in blocking buffer (5% non-fat dry milk in TBS-T), and can be incubated with primary antibodies (at optimized concentrations) overnight at 4° C. After washing in TBS-T, the membranes can be incubated with an appropriate HRP-conjugated secondary antibody for 1 h at room temperature. After extensive washing, the proteins of interest can be detected with ECL western blotting detection reagents and recorded with autoradiography (Pierce Biotech, Rockford, IL, USA). The primary antibodies for Bcl-xL (Cat #2762), Bcl-2 (Cat #2872), Mcl-1 (Cat #5453) and β-actin (Cat #4970) can be purchased from Cell Signaling technology. The relative band intensity can be measured using ImageJ software and normalized to b-actin. The DC50 (concentration with 50% degradation) can be calculated using GraphPad Prism.
(In general: In western blotting, separated proteins are transferred to a membrane and probed.)
As to `Cc1c(-c2ccc(N3CCc4cccc(C(=O)Nc5nc6ccccc6s5)c4C3)nc2C(=O)NCCOCCOCCOCCNc2cccc3c2C(=O)N(C2CCC(=O)NC2=O)C3=O)cnn1CC12CC3CC(CC(C3)C1)C2` (centres unmarked) [degrader #8, 2-(5-(1-(adamantan-1-ylmethyl)-5-methyl-1H-pyrazol-4-yl)-6-((2-(2-(2-(2-((2-(2,6-dioxopiperidin-3-yl)-1,3-dioxoisoindolin-4-yl)amino)ethoxy)ethoxy)ethoxy)ethyl)carbamoyl)pyridin-2-yl)-N-(benzo[d]thiazol-2-yl)-1,2,3,4-tetrahydroisoquinoline-8-carboxamide], the “protein degradation (western blot)” value is listed as “protein degradation”.
